Data reported in PubChem BioAssay AID1195 (EPA DSSTox, 2008).

Tested on: human maximum recommended daily dose, FDA database
Assay: DSSTox (FDAMDD) FDA Maximum (Recommended) Daily Dose Database
Settings: stronger effect = lower value
Outline: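 MRDD values come from clinical trials with daily oral dosing, usually for 3–12 months, for the average adult, in mg/day converted to mg/kg-bw/day assuming 60 kg. Antineoplastic mg/m2 doses are divided by 37. Activity score maps log10(1/MRDD mmol) onto 1–100.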

[1] = TherapeuticCategory: anticonvulsant
[2] = TherapeuticCategory: antibacterial

SMILES: CCOc1ccc(NC(C)=O)cc1
- maximum recommended daily dose (mmol/kg-bw/day) (TherapeuticCategory: anticonvulsant, analgesic, antipyretic): 0.279

SMILES: NC(=O)C1CCN(CCCN2c3ccccc3Sc3ccc(Cl)cc32)CC1
- maximum recommended daily dose (mmol/kg-bw/day) (TherapeuticCategory: antiemetic): 0.000622

SMILES: O=C(O)CN(CCN(CC(=O)O)CC(=O)O)CCN(CC(=O)O)CC(=O)O
- maximum recommended daily dose (mmol/kg-bw/day) (TherapeuticCategory: chelating agent): 0.0425

SMILES: Cn1c(=O)c2c(ncn2CC2OCCO2)n(C)c1=O
- maximum recommended daily dose (mmol/kg-bw/day) (TherapeuticCategory: bronchodilator): 0.05

SMILES: O=C(O)CCCC[C@@H]1SC[C@@H]2NC(=O)N[C@@H]21
- maximum recommended daily dose (mmol/kg-bw/day) (TherapeuticCategory: none): 1.36e-05

SMILES: CC(C)(C)NC[C@H](O)COc1nsnc1N1CCOCC1
- maximum recommended daily dose (mmol/kg-bw/day) (TherapeuticCategory: antihypertensive, antianginal, antiarrhythmic, antiglaucomic): 0.00316

SMILES: COc1ccccc1OCC1CNC(=O)O1 (stereo unspecified)
- maximum recommended daily dose (mmol/kg-bw/day) (TherapeuticCategory: anxiolytic, skeletal muscle relaxant): 0.0896

SMILES: CC(=O)Oc1ccc(C(=C2CCCCC2)c2ccc(OC(C)=O)cc2)cc1
- maximum recommended daily dose (mmol/kg-bw/day) (TherapeuticCategory: gonad stimulating): 0.0183

SMILES: CC(O)Cn1cnc2c1c(=O)n(C)c(=O)n2C (stereo unspecified)
- maximum recommended daily dose (mmol/kg-bw/day) (TherapeuticCategory: bronchodilator, vasodilator, smooth muscle relaxant): 0.168

SMILES: COc1cc(C[C@@H]2c3c(cc(OC)c(OC)c3OC)CC[N@@+]2(C)CCCOC(=O)CCC(=O)OCCC[N@@+]2(C)CCc3cc(OC)c(OC)c(OC)c3[C@@H]2Cc2cc(OC)c(OC)c(OC)c2)cc(OC)c1OC
- maximum recommended daily dose (mmol/kg-bw/day) (TherapeuticCategory: skeletal muscle relaxant, neuromuscular blocker): 4.52e-05

SMILES: Nc1ccc(S(=O)(=O)c2ccc(N)cc2)cc1
- maximum recommended daily dose (mmol/kg-bw/day) (TherapeuticCategory: antibacterial, dermatitis herpetiformis suppressant): 0.0201

SMILES: CCN1C(=O)NC(c2ccccc2)C1=O (stereo unspecified)
- maximum recommended daily dose (mmol/kg-bw/day) [1]: 0.245

SMILES: CCOC(=O)c1ccc(N)cc1
- maximum recommended daily dose (mmol/kg-bw/day) (TherapeuticCategory: topical anesthetic): 0.00726

SMILES: COC(=O)C1=C(C)NC(C)=C(C(=O)OCC(C)C)C1c1ccccc1[N+](=O)[O-] (stereo unspecified)
- maximum recommended daily dose (mmol/kg-bw/day) (TherapeuticCategory: antihypertensive, antianginal): 0.00172

SMILES: Cc1ncc([N+](=O)[O-])n1CCO
- maximum recommended daily dose (mmol/kg-bw/day) (TherapeuticCategory: antiprotozoal): 0.195

SMILES: CCCCC[C@H](O)/C=C/[C@@H]1[C@@H](C/C=C\CCCC(=O)O)[C@@H](O)C[C@H]1O
- maximum recommended daily dose (mmol/kg-bw/day) (TherapeuticCategory: oxytocic, abortifacient): 3.53e-05

SMILES: CN(C)CCN(Cc1ccccc1)c1ccccn1
- maximum recommended daily dose (mmol/kg-bw/day) (TherapeuticCategory: antihistaminic): 0.0392

SMILES: CCOC(=O)c1ncn2c1CN(C)C(=O)c1cc(F)ccc1-2
- maximum recommended daily dose (mmol/kg-bw/day) (TherapeuticCategory: benzodiazepine antagonist): 0.000165

SMILES: Cc1ccnc(NS(=O)(=O)c2ccc(N)cc2)n1
- maximum recommended daily dose (mmol/kg-bw/day) [2]: 0.252

SMILES: CS(=O)(=O)c1ccc([C@@H](O)[C@@H](CO)NC(=O)C(Cl)Cl)cc1
- maximum recommended daily dose (mmol/kg-bw/day) [2]: 0.14

SMILES: CCCCNc1ccc(C(=O)OCCOCCOCCOCCOCCOCCOCCOCCOCCOC)cc1
- maximum recommended daily dose (mmol/kg-bw/day) (TherapeuticCategory: antitussive): 0.0166

SMILES: CN(C)CCN1C(=O)c2ccccc2N(C)c2ccccc21
- maximum recommended daily dose (mmol/kg-bw/day) (TherapeuticCategory: antidepressant): 0.0406

SMILES: COc1ccc(OC)c(C(O)C(C)N)c1 (stereo unspecified)
- maximum recommended daily dose (mmol/kg-bw/day) (TherapeuticCategory: adrenergic): 0.00158

SMILES: CCn1cc(C(=O)O)c(=O)c2cc(F)c(N3CCNCC3)nc21
- maximum recommended daily dose (mmol/kg-bw/day) [2]: 0.0624

SMILES: O=C(O)c1cc(N=Nc2ccc(O)c(C(=O)O)c2)ccc1O
- maximum recommended daily dose (mmol/kg-bw/day) (TherapeuticCategory: treatment of ulcerative colitis): 0.0553

SMILES: COc1ccccc1OCC(O)CO (stereo unspecified)
- maximum recommended daily dose (mmol/kg-bw/day) (TherapeuticCategory: expectorant): 0.101

SMILES: CN1C(=O)NC(=O)C(C)(C2=CCCCC2)C1=O (stereo unspecified)
- maximum recommended daily dose (mmol/kg-bw/day) (TherapeuticCategory: sedative, hypnotic, anesthetic): 0.0353

SMILES: OCCN1CCN(CCCN2c3ccccc3Sc3ccc(Cl)cc32)CC1
- maximum recommended daily dose (mmol/kg-bw/day) (TherapeuticCategory: antipsychotic, dopamine receptor antagonist): 0.00099

SMILES: C#C[C@]1(O)CC[C@H]2[C@@H]3CCc4cc(O)ccc4[C@H]3CC[C@@]21C
- maximum recommended daily dose (mmol/kg-bw/day) (TherapeuticCategory: estrogen): 1.69e-06

SMILES: Nc1nnc(-c2cccc(Cl)c2Cl)c(N)n1
- maximum recommended daily dose (mmol/kg-bw/day) [1]: 0.026

SMILES: CC(COc1ccccc1)NC(C)C(O)c1ccc(O)cc1 (stereo unspecified)
- maximum recommended daily dose (mmol/kg-bw/day) (TherapeuticCategory: vasodilator): 0.00441
